Measurements from patent US10208033B2, “β-carboline, dihydro-β-carboline and tetrahydro-β-carboline alkaloid derivatives and preparation methods same and use in aspects of preventing and treating plant viruses, fungicides and insecticides” (NANKAI UNIVERSITY, priority 2013, dated 2019).
Where a name gives a salt, the structure may show the parent alone. Read-outs that look alike come from different tables or passages of the source.

Tests used:
[1] = test system: tobacco mosaic virus (TMV); assay: Anti-TMV in vitro effect (half-leaf soaking); type: cell-based, tobacco mosaic virus (host Nicotiana tabacum L.cv.Xanthi NN)
[2] = test system: tobacco mosaic virus (TMV); assay: Anti-TMV in vivo inactivation; parameters: species or system tobacco mosaic virus (host Nicotiana tabacum L.cv.Xanthi NN)
[3] = test system: tobacco mosaic virus (TMV); assay: Anti-TMV in vivo therapeutic effect; parameters: species or system tobacco mosaic virus (host Nicotiana tabacum L.cv.Xanthi NN)
[4] = test system: tobacco mosaic virus (TMV); assay: Anti-TMV in vivo protective effect; parameters: species or system tobacco mosaic virus (host Nicotiana tabacum L.cv.Xanthi NN)
cucumber fusarium wilt = assay: Fungicidal (bactericidal) activity in vitro, PDA colony diameter; type: cell-based; conditions: 50 mg/kg
Cercospora arachidicola = assay: as above; type: cell-based
Macrophoma kawatsukai = assay: as above; type: cell-based; conditions: 50 mg/kg
Alternaria solani = assay: as above; type: cell-based; conditions: 50 mg/kg
Fusarium graminearumt = assay: microbe, parasite or virus in culture; type: cell-based; conditions: 50 mg/kg
potato late blight = assay: microbe, parasite or virus in culture; type: cell-based
Sclerotinia scleotiorum = assay: Fungicidal (bactericidal) activity in vitro, PDA colony diameter; type: cell-based; conditions: 50 mg/kg
Botrytis cinerea = assay: as above; type: cell-based; conditions: 50 mg/kg
Rhizoctonia solani = assay: as above; type: cell-based; conditions: 50 mg/kg
Phytophthora capsici = assay: as above; type: cell-based; conditions: 50 mg/kg
Fusarium fujikuroi = assay: as above; type: cell-based
Rhizoctonia cereali = assay: as above; type: cell-based; conditions: 50 mg/kg
Bipolaria maydis = assay: organism not typed; type: cell-based; conditions: 50 mg/kg
[5] = test system: Colletotrichum orbiculare; assay: Fungicidal (bactericidal) activity in vitro, PDA colony diameter; type: cell-based; conditions: 50 mg/kg
armyworms = type: in vivo; conditions: concentration 600 mg/kg
cotton bollworms = assay: whole plant or invertebrate
Experimental: Experimental method of cotton bollworms: feed and drug mixing method: measure 3 mL of prepared solution and add it to about 27 g of newly prepared feed, thereby obtaining needed concentration through dilution by 10 times.

mosquito larvae = assay: whole plant or invertebrate
Experimental: Experimental method of mosquito larvae: culex pipiens pallens, a normal colony raised indoors. Weigh about 5 mg of the compound for test, put it in a penicillin vial, add 5 mL of acetone (or an appropriate solvent), and shake and dissolve it to obtain a 1000 ppm mother solution. Pipette 0.5 mL of the mother solution, add it to a 100 mL beaker filled with 89.9 mL of water, select 10 mosquito larvae at the beginning of the fourth instar, and pour them to a beaker together with 10 mL of feeding solution. The concentration of the drug solution is 5 ppm. […] Use an aqueous solution containing 0.5 mL of test solvent as a blank.

Row | SMILES | Relative inhibition rate (%) In vitro activity ([1]; treatment dose 100 μg/mL) [%] | Relative inhibition rate (%) In vitro activity ([1]; treatment dose 500 μg/mL) [%] | Relative inhibition rate (%) In vivo inactivation ([2]; treatment dose 100 μg/mL) [%] | Relative inhibition rate (%) In vivo inactivation ([2]; treatment dose 500 μg/mL) [%] | Relative inhibition rate (%) In vivo therapy ([3]; treatment dose 100 μg/mL) [%] | Relative inhibition rate (%) In vivo therapy ([3]; treatment dose 500 μg/mL) [%] | Relative inhibition rate (%) In vivo protection ([4]; treatment dose 100 μg/mL) [%] | Relative inhibition rate (%) In vivo protection ([4]; treatment dose 500 μg/mL) [%] | Bactericidal activity (%) Cucumber fusarium wilt (cucumber fusarium wilt) [%] | Bactericidal activity (%) Macrophoma kawatsukai (Macrophoma kawatsukai) [%] | Bactericidal activity (%) Alternaria solani (Alternaria solani) [%] | Bactericidal activity (%) Fusarium graminearumt (Fusarium graminearumt) [%] | Bactericidal activity (%) Sclerotinia scleotiorum (Sclerotinia scleotiorum) [%] | Bactericidal activity (%) Botrytis cinerea (Botrytis cinerea) [%] | Bactericidal activity (%) Rhizoctonia solani (Rhizoctonia solani) [%] | Bactericidal activity (%) Phytophthora capsici (Phytophthora capsici) [%] | Bactericidal activity (%) Rhizoctonia cereali (Rhizoctonia cereali) [%] | Bactericidal activity (%) Bipolaria maydis (Bipolaria maydis) [%] | Bactericidal activity (%) Colletotrichum orbiculare [5] [%] | Armyworm Mortality (%) (armyworms) | also measured
1 | CC(=O)Oc1ccc2c(c1)[nH]c1c(C)nccc12 [Ia-7, Acetate (1-methylpyridino [3,4-b]indol-7)-ester] | 0 | 30 | 0 | 20.3 | 0 | 24.1 | 0 | 27.2 | 14.3 | 5.9 | 33.3 | 35.7 | 76.0 | 36.4 | 0.0 | 18.2 | 62.5 | 21.1 | 33.3 | 35 | Bactericidal activity (%) Cercospora arachidicola (Cercospora arachidicola): 35.7%; Bactericidal activity (%) potato late blight (potato late blight; 50 mg/kg): 20.0%; Bactericidal activity (%) Fusarium fujikuroi (Fusarium fujikuroi): 35.7%; Cotton bollworm Mortality (%) (cotton bollworms; concentration 600 mg/kg): 30%; Mosquito larvae Mortality (%) (mosquito larvae; concentration 10 mg/kg, 24 h): 65%; Corn borer Mortality (%) (corn borers; concentration 600 mg/kg): 25%
2 | CCOC(=O)c1cc2c([nH]c3ccccc32)c(C)n1 [Ia-10, 1-methyl-pyridino [3,4-b] indol-3-ethyl formate] | 0 | 33.3 | 0 | 26.3 | 0 | 28.8 | 0 | 23.7 | 23.8 | 52.9 | 61.1 | 71.4 | 68.0 | 13.6 | 39.3 | 51.5 | 78.1 | 36.8 | 47.6 | 30 | Bactericidal activity (%) Cercospora arachidicola (Cercospora arachidicola; 50 mg/kg): 35.7%; Bactericidal activity (%) potato late blight (potato late blight; 50 mg/kg): 35.0%; Bactericidal activity (%) Fusarium fujikuroi (Fusarium fujikuroi; 50 mg/kg): 35.7%; Cotton bollworm Mortality (%) (cotton bollworms; concentration 600 mg/kg): 40%; Mosquito larvae Mortality (%) (mosquito larvae; concentration 10 mg/kg, 24 h): 65%; Corn borer Mortality (%) (corn borers; concentration 600 mg/kg): 30%
3 | Cc1nc(/C=C/C(=O)O)cc2c1[nH]c1ccccc12 [Ia-14, (E)-3-(1-methyl-pyridino [3,4-b]indol-3)-acrylic acid] | 0 | 25.8 | 0 | 18.4 | 0 | 21.5 | 0 | 28.4 | 23.1 | 47.6 | 10.5 | 14.3 | 9.8 | 12.1 | 39.5 | 18.8 | 63.2 | 22.7 | 25.0 | 25 | Bactericidal activity (%) Cercospora arachidicola (Cercospora arachidicola; 50 mg/kg): 84.6%; Bactericidal activity (%) potato late blight (potato late blight): 22.7%; Bactericidal activity (%) Fusarium fujikuroi (Fusarium fujikuroi; 50 mg/kg): 28.6%; Cotton bollworm Mortality (%) (cotton bollworms; concentration 600 mg/kg): 30%; Mosquito larvae Mortality (%) (mosquito larvae; concentration 10 mg/kg, 24 h): 35%; Corn borer Mortality (%) (corn borers; concentration 600 mg/kg): 20%
4 | O=C(O)/C=C/c1cc2c([nH]c3ccccc32)c(-c2cccs2)n1 [Ia-15, (E)-3-(1-(thiophene-2)-pyridino [3,4-b]indol-3)-acrylic acid] | 0 | 40.2 | 13.5 | 39.6 | 10 | 36.2 | 10.2 | 35.1 | 33.3 | 58.8 | 22.2 | 78.6 | 76.0 | 68.2 | 17.9 | 66.7 | 81.3 | 73.7 | 66.7 | 15 | Bactericidal activity (%) Cercospora arachidicola (Cercospora arachidicola; 50 mg/kg): 21.4%; Bactericidal activity (%) potato late blight (potato late blight): 55.0%; Bactericidal activity (%) Fusarium fujikuroi (Fusarium fujikuroi; 50 mg/kg): 64.3%; Cotton bollworm Mortality (%) (cotton bollworms; concentration 600 mg/kg): 15%; Mosquito larvae Mortality (%) (mosquito larvae; concentration 10 mg/kg, 24 h): 35%; Corn borer Mortality (%) (corn borers; concentration 600 mg/kg): 5%
5 | O=C(O)/C=C/c1cc2c([nH]c3ccccc32)c(-c2cccnc2)n1 [Ia-16, (E)-3-(1-(pyridine-3)-pyridino [3,4-b]indol-3)-acrylic acid] | 0 | 17.8 | 0 | 26.5 | 0 | 20.2 | 0 | 21.3 | 4.8 | 23.5 | 22.2 | 42.9 | 76.0 | 4.6 | 0.0 | 9.1 | 53.1 | 15.8 | 23.8 | 10 | Bactericidal activity (%) Cercospora arachidicola (Cercospora arachidicola; 50 mg/kg): 0.0%; Bactericidal activity (%) potato late blight (potato late blight): 15.0%; Bactericidal activity (%) Fusarium fujikuroi (Fusarium fujikuroi; 50 mg/kg): 28.6%; Cotton bollworm Mortality (%) (cotton bollworms; in vivo): 5%; Mosquito larvae Mortality (%) (mosquito larvae; in vivo): 20%; Corn borer Mortality (%) (corn borers; in vivo): 10%
6 | CCOC(=O)[C@@H]1Cc2c([nH]c3ccccc23)CN1 [Ib-7, (S)-2,3,4,9-tetrahydropyridino [3,4-b] indol-3-ethyl formate] | 12.3 | 26.9 | 19.3 | 36.5 | 15.9 | 30.7 | 16.2 | 40.1 | 33.3 | 64.7 | 50.0 | 42.9 | 60.0 | 50.0 | 42.9 | 66.7 | 78.1 | 42.1 | 47.6 | 5 | Bactericidal activity (%) Cercospora arachidicola (Cercospora arachidicola; 50 mg/kg): 42.9%; Bactericidal activity (%) potato late blight (potato late blight): 40.0%; Bactericidal activity (%) Fusarium fujikuroi (Fusarium fujikuroi; 50 mg/kg): 64.3%; Cotton bollworm Mortality (%) (cotton bollworms; concentration 600 mg/kg): 20%; Mosquito larvae Mortality (%) (mosquito larvae; concentration 10 mg/kg, 24 h): 15%; Corn borer Mortality (%) (corn borers; concentration 600 mg/kg): 5%
